This is an account of results in paper PMC8550792, “Evolution of kinase polypharmacology across HSP90 drug discovery” (Cell Chemical Biology, 2021).

Assay in all cases: biochemical
Holding throughout (format): biochemical

For experiment [1], the target named is T1, 382 unique human kinases (Homo sapiens, UniProt Q99683).
T1 construct: purchased Reaction Biology (HotSpot contract assay)
T1 sequence (Q99683 1-1374): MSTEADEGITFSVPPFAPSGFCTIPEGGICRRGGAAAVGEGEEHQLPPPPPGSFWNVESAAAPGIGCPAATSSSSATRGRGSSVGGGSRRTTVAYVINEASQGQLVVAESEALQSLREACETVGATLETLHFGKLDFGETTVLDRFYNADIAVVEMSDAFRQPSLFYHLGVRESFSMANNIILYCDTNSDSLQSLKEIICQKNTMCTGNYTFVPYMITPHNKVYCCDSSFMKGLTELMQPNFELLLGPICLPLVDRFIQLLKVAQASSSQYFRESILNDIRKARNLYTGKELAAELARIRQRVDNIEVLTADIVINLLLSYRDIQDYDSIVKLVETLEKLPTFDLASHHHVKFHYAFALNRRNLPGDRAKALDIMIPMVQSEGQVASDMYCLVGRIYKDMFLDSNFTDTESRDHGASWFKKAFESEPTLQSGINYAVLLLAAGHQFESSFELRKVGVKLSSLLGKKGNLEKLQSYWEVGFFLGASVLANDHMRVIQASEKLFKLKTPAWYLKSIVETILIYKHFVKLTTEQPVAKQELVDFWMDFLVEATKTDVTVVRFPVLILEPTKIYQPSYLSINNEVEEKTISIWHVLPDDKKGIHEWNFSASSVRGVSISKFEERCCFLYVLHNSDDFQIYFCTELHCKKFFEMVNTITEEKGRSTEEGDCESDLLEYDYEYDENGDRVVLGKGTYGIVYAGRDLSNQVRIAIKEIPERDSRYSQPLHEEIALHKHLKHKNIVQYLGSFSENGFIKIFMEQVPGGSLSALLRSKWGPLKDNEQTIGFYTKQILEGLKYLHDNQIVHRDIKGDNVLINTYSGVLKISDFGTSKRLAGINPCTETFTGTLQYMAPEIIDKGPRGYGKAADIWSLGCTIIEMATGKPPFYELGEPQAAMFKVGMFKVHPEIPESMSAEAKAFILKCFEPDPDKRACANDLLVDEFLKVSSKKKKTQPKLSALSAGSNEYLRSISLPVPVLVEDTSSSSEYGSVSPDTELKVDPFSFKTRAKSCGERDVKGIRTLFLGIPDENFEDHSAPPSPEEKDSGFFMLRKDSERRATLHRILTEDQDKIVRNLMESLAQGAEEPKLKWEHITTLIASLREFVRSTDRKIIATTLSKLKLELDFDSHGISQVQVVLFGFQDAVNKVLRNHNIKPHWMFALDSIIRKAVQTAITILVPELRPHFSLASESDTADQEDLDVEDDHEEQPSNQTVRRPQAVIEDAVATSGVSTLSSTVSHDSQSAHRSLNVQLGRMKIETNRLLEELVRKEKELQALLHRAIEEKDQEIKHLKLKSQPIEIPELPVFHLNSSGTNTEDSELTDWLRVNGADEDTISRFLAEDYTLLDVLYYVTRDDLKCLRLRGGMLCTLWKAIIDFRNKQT
As to conditions: ASK1/MAP3K5, compound at 10 uM, duplicate values; for remaining activity at 10 µM: read-out: % Enzyme Activity (relative to DMSO controls).

The target of experiment [2] is T2, 382 unique human kinases (Homo sapiens, UniProt P51817).
T2 construct: purchased Reaction Biology (HotSpot contract assay)
T2 sequence (P51817 1-358): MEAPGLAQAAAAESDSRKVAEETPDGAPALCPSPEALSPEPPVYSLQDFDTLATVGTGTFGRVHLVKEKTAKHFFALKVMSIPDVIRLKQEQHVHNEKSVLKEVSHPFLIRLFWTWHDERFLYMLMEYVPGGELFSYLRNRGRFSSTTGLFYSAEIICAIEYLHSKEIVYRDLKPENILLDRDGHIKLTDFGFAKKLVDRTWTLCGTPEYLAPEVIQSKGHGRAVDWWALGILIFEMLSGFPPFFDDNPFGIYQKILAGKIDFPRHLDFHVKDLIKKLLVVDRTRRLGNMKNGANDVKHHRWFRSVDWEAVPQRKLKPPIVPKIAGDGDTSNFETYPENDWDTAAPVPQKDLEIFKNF
As to conditions: PRKX, compound at 10 uM, duplicate values; for remaining activity at 10 µM: read-out: % Enzyme Activity (relative to DMSO controls).

Experiment [3] deals with T3, 382 unique human kinases (Homo sapiens, UniProt Q96PF2).
T3 construct: purchased Reaction Biology (HotSpot contract assay)
T3 sequence (Q96PF2 1-358): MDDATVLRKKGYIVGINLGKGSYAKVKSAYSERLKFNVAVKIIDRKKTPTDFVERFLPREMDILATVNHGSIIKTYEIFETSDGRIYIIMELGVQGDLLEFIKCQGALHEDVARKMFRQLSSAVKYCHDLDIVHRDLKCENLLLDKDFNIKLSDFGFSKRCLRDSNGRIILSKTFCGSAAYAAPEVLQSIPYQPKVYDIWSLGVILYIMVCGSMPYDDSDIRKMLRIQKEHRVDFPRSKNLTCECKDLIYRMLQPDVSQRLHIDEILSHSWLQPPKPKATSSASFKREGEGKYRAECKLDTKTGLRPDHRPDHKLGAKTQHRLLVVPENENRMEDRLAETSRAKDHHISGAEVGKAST
As to conditions: kinase TSSK2, compound 10 uM; for remaining activity at 10 µM: read-out: % Enzyme Activity (relative to DMSO controls).

In experiment [4] the target is T4, 382 unique human kinases (Homo sapiens, UniProt Q8NEV4).
T4 construct: purchased Reaction Biology (HotSpot contract assay)
As to conditions: MYO3A, 10 uM; for remaining activity at 10 µM: read-out: % Enzyme Activity (relative to DMSO controls).

Experiment [5] addresses T5, 382 unique human kinases (Homo sapiens, UniProt Q9UM73, L1196M).
T5 construct: purchased Reaction Biology (HotSpot contract assay)
Conditions: ALK (L1196M), 10 uM; for remaining activity at 10 µM: read-out: % Enzyme Activity (relative to DMSO controls).

Experiment [6] has as its target T6, 382 unique human kinases (Homo sapiens, UniProt P16591).
T6 construct: purchased Reaction Biology (HotSpot contract assay)
As to conditions: kinase FER, compound 10 uM; for remaining activity at 10 µM: read-out: % Enzyme Activity (relative to DMSO controls).

Experiment [7] concerns the target T7, 382 unique human kinases (Homo sapiens, UniProt O96017).
T7 construct: purchased Reaction Biology (HotSpot contract assay)
As to conditions: kinase CHK2, compound 10 uM; for remaining activity at 10 µM: read-out: % Enzyme Activity (relative to DMSO controls).

For experiment [8], the target named is T8, 382 unique human kinases (Homo sapiens, UniProt P41240).
T8 construct: purchased Reaction Biology (HotSpot contract assay)
Conditions: CSK, 10 uM; for remaining activity at 10 µM: read-out: % Enzyme Activity (relative to DMSO controls).

In experiment [9] the target is T9, 382 unique human kinases (Homo sapiens, UniProt P22607).
T9 construct: purchased Reaction Biology (HotSpot contract assay)
Conditions: FGFR3, 10 uM; for remaining activity at 10 µM: read-out: % Enzyme Activity (relative to DMSO controls).

For experiment [10], the target named is T10, 382 unique human kinases (Homo sapiens, UniProt Q96RR4).
T10 construct: purchased Reaction Biology (HotSpot contract assay)
Conditions: kinase CAMKK2, compound 10 uM; for remaining activity at 10 µM: read-out: % Enzyme Activity (relative to DMSO controls).

For experiment [11], the target named is T11, 382 unique human kinases (Homo sapiens, UniProt P06239).
T11 construct: purchased Reaction Biology (HotSpot contract assay)
As to conditions: LCK, [ATP] 15 µM.

[12] abbreviates: compound 10 uM, read-out: % Enzyme Activity (relative to DMSO controls).

T9 sequence (P22607 23-806): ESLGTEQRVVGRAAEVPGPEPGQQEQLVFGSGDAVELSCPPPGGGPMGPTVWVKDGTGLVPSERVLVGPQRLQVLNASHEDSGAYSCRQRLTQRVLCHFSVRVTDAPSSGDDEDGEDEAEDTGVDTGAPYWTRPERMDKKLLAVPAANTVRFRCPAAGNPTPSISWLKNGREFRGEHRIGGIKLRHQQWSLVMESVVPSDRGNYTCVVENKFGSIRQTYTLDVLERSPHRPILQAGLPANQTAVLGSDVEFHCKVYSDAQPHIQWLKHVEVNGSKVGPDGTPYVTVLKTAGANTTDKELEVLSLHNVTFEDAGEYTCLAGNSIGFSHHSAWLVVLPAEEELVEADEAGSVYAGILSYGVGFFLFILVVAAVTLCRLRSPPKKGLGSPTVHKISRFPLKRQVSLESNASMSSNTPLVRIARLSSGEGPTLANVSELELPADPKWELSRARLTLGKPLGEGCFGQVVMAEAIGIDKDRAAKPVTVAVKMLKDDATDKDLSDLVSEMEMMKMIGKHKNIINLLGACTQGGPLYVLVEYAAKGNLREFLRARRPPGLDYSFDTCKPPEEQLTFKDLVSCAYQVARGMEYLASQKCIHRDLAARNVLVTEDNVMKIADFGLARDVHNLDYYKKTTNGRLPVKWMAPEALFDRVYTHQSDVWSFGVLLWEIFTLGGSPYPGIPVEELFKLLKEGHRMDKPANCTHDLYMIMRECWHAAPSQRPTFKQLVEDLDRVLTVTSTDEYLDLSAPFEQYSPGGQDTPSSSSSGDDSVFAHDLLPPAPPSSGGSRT
T11 sequence (P06239 whole entry): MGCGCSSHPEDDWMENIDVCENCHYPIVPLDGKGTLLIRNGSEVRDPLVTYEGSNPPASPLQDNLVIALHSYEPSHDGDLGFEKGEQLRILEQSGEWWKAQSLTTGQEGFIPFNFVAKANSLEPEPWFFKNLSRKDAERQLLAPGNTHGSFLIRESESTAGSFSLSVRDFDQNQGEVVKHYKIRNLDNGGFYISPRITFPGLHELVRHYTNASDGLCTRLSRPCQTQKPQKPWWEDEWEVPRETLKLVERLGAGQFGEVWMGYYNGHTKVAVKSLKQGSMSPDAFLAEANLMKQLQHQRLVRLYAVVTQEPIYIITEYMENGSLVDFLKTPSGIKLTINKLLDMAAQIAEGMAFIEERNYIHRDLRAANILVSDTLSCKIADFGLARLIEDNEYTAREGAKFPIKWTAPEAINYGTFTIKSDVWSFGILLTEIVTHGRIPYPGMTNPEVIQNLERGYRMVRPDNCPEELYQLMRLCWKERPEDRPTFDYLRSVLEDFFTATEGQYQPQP
T6 sequence (P16591 whole entry): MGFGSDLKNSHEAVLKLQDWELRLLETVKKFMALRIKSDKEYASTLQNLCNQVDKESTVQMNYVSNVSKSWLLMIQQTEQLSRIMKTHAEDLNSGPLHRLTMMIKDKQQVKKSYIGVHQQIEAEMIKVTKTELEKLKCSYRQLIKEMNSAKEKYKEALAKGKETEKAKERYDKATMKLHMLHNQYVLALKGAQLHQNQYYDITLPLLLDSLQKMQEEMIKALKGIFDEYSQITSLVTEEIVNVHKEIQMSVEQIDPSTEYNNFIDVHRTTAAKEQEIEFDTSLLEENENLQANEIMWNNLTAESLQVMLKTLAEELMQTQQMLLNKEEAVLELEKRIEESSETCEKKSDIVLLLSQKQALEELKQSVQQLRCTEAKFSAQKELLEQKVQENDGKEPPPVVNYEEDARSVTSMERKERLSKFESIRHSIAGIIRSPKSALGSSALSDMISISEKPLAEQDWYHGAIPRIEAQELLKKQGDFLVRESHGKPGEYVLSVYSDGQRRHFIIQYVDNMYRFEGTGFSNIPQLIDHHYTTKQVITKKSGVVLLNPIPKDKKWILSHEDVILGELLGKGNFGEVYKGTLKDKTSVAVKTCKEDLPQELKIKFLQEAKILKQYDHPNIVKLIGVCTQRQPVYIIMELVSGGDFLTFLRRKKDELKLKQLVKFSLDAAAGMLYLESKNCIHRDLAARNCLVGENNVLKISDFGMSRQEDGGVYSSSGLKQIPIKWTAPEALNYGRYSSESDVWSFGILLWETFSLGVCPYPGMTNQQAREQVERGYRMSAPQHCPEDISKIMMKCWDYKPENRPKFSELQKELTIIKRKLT
T8 sequence (P41240 whole entry): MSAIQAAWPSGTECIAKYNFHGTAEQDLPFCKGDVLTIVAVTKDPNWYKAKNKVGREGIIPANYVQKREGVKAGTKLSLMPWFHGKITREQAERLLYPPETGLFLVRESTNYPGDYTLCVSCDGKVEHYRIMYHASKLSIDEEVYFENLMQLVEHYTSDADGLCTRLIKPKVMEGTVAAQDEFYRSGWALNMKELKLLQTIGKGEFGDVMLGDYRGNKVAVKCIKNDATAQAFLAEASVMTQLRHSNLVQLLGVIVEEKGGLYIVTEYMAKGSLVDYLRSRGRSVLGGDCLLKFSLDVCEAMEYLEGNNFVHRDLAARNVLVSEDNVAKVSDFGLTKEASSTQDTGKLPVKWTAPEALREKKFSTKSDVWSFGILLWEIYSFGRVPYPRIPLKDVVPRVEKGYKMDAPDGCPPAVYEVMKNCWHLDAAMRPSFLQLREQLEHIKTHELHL
T4 sequence (Q8NEV4 whole entry): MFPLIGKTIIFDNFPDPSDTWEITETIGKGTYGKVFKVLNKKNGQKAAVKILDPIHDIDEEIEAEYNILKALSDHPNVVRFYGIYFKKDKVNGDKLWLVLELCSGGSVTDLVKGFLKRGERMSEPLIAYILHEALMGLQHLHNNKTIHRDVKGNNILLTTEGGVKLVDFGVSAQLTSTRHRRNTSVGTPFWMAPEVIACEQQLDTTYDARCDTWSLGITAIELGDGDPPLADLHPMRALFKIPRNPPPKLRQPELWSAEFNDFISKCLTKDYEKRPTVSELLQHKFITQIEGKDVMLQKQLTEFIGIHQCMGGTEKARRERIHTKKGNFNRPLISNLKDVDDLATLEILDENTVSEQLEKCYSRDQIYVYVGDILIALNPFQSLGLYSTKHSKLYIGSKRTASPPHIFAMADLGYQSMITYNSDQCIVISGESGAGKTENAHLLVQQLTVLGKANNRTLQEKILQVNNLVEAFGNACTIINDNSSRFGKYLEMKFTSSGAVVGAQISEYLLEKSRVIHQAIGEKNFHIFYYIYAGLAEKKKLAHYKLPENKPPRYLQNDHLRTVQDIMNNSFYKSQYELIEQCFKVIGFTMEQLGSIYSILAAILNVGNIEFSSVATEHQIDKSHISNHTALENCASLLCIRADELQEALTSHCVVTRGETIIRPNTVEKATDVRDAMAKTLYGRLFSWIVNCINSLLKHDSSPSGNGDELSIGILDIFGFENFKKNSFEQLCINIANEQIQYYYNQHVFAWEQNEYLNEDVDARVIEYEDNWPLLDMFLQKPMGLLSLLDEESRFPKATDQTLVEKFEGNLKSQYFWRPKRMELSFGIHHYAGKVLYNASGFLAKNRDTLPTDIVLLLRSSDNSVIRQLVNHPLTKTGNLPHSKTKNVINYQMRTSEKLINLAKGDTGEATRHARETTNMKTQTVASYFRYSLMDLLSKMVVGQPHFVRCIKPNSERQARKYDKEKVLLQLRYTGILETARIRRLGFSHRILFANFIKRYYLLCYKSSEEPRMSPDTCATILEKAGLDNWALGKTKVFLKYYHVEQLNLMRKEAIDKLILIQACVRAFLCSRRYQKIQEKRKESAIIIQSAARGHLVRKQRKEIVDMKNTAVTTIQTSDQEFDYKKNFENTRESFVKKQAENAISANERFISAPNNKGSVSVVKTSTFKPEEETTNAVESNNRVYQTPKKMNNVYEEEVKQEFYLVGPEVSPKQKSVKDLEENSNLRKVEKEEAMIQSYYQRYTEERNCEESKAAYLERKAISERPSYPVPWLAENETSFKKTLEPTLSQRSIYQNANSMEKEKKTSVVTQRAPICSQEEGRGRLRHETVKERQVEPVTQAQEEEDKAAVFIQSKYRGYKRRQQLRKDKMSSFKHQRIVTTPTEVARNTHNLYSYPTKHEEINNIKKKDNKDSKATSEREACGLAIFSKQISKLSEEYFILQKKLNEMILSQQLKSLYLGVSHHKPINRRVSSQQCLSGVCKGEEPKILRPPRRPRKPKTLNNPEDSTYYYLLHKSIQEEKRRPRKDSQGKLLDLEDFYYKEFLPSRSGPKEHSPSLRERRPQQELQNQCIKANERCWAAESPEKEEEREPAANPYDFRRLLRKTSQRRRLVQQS
T10 sequence (Q96RR4 whole entry): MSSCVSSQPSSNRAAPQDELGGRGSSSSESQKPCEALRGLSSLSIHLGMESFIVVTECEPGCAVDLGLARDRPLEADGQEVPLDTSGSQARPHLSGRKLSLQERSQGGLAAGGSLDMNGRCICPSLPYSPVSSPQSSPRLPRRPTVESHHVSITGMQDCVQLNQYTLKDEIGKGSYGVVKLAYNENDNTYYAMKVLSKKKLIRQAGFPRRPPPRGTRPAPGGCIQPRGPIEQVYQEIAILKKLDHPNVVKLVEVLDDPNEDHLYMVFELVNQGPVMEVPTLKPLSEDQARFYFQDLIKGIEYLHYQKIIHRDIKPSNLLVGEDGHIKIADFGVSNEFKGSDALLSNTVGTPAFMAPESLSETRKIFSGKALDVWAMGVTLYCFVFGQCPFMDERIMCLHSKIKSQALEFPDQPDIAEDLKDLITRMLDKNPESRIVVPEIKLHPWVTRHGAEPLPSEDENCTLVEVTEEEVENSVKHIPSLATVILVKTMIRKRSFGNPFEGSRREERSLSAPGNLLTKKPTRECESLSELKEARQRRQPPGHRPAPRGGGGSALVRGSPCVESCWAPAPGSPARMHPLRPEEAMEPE

Regarding `CC(C)c1cc(-c2n[nH]c(=O)n2-c2ccc3c(ccn3C)c2)c(O)cc1O` [Ganetespib (STA9090)], the remaining activity at 10 µM worked out at 110% on 382 unique human kinases [1]; 108% at 382 unique human kinases [2]; 90.3% on 382 unique human kinases [3]; 97.3% at 382 unique human kinases [4]; 70.2% at 382 unique human kinases [5]; 82.6% at 382 unique human kinases [6]. Further, the remaining activity at 10 µM at 382 unique human kinases [7] was found to be 84.6%; at 382 unique human kinases [8], 70.3%; on 382 unique human kinases [9], 62.6%; at 382 unique human kinases [10], 89.7%.

As to `CC(C)c1cc(-c2n[nH]c(=O)n2-c2ccc3c(ccn3C)c2)c(O)cc1O` [Ganetespib], the remaining activity at 1 µM on 382 unique human kinases [11] (compound 1 uM, read-out: % Enzyme Activity (relative to DMSO controls)) came out at 49.3%. For the same molecule, on 382 unique human kinases [11] (setting [12]), the remaining activity at 10 µM amounted to 13.9%.

For the molecule `CCNC(=O)c1noc(-c2cc(C(C)C)c(O)cc2O)c1-c1ccc(CN2CCOCC2)cc1` [Luminespib (AUY-922)], the “% Enzyme Activity (relative to DMSO controls)” value on 382 unique human kinases [1] is 105.53%; on 382 unique human kinases [2] it was 112.11%; on 382 unique human kinases [3] it was 101.80%; on 382 unique human kinases [4], 74.72%; on 382 unique human kinases [5] it was 98.66%; at 382 unique human kinases [6] it was 101.55%. For the same molecule, the “% Enzyme Activity (relative to DMSO controls)” value on 382 unique human kinases [7] is recorded as 102.76%; at 382 unique human kinases [8] it was 73.41%; at 382 unique human kinases [9], 96.41%; at 382 unique human kinases [10], 109.01%. Also, the remaining activity at 10 µM on 382 unique human kinases [1] amounted to 106%; at 382 unique human kinases [2], 112%; on 382 unique human kinases [3] it was 102%; at 382 unique human kinases [4] it was 76.4%; at 382 unique human kinases [5], 100%; on 382 unique human kinases [6], 102%. The remaining activity at 10 µM stood at 104% at 382 unique human kinases [7], 74.1% at 382 unique human kinases [8], 97.2% on 382 unique human kinases [9] and 110% on 382 unique human kinases [10].

In the case of `CCNC(=O)c1noc(-c2cc(C(C)C)c(O)cc2O)c1-c1ccc(CN2CCOCC2)cc1` [Luminespib], the “% Enzyme Activity (relative to DMSO controls)” value at 382 unique human kinases [11] (compound 10 uM) stood at 58.73%. The remaining activity at 10 µM at 382 unique human kinases [11] (setting [12]) came to 61%.
